# Experimental data: PubChem BioAssay (NCI)
# “And” between values parts separate entries of the source, which are not always exact repeats. Equal entries are not always repeated.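 Step 1: Grow cells in 96-well plates. Step 2: Expose to compound for 48 hours at 5 concentrations. Step 3: Interpolate endpoints linearly; if unreached, use highest concentration. Abbreviation: GI50, concentration required for 50% inhibition of growth. TGI: total growth inhibition.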
# Tested on: ACHN renal
# Test: DTP human tumour cell line panel, 48 h
Structure (SMILES),GI50,TGI [µM]
COc1cc(NCc2ccc3nc(N)nc(N)c3c2C)cc(OC)c1OC (tested in a mixture with another compound),0.0736 µM and 0.025 µM,32.8
COc1ccc(NC(=O)/C(Cc2cc(=O)oc3cc(O)ccc23)=N\NC(C)(C)C)c(OC)c1,,> 100
O=C1/C(=C/c2ccc3c(c2)OCO3)SC2C=Nc3ccccc3N12 (stereo unspecified),,> 100
CCOc1ccc(NC(=O)C(=O)CC(=O)c2c(C)n([O-])c3ccccc3[n+]2=O)cc1,,> 100
CC(=O)OC12C=CC(=O)N1c1ccccc1C(=O)O2 (stereo unspecified),,> 100
Cc1cc(Cl)ccc1NC(=O)C(=O)Cc1nc2ccccc2o1,,> 100
OCC1OC(c2nc(C3=NCCCN3)cs2)C(O)C1O (stereo unspecified),,> 100
CCC(C)COC(=O)c1ccc(N=Cc2ccc(C=Nc3ccc(C(=O)OCC(C)CC)cc3)cc2)cc1 (stereo unspecified),,> 100
Cc1cc(N(CCC#N)CCC#N)ccc1N=Nc1ccc(C(=O)O)cc1,,> 100
CN(C)CC1CCCC/C1=N/OC(=O)c1ccc(Cl)cc1 (stereo unspecified),,> 100
N#CC(C(=O)C(=O)C(C#N)c1ccc(Br)cc1)c1ccc(Br)cc1 (stereo unspecified),,25.1
COc1cccc(C2=NC(C(C)C)CO2)c1 (stereo unspecified),,> 100
CCOC(=O)C(=[N+]=[N-])[Si](C)(C)C,,> 100
CCCc1nc(NC#N)nc(C(=O)Nc2ccccc2)c1CC,,> 100
O=C(CCc1n[nH]c(=S)o1)Nc1ccccc1C(F)(F)F,,> 100
COc1cc2c(c(OC)c1OC)-c1ccc(SC)c(=O)cc1C(NC=O)CC2 (stereo unspecified),,> 100
Cc1ccc(NC(=O)CCc2cc(C(C)(C)C)nc(=S)[nH]2)cc1C,,> 100
Cc1[nH]c2ccccc2c1C(=O)/C=C/c1ccccc1O,,> 100

Structure (SMILES),GI50,TGI [µM]
O=C(Nc1nc(=S)c2c(ncn2CCOC(=O)c2ccccc2)[nH]1)c1ccccc1,,> 100
COc1ccc(CC2NCCc3c2[nH]c2ccccc32)cc1 (stereo unspecified),,> 100
CCOc1ccc(NC(=O)CC#N)cc1,,> 100
O=C(/C=C/c1cccc2ccccc12)c1ccccc1Cl,,31.3
Cc1ccc(/C=C/C(=O)c2sc(-c3nc(C)c(C(=O)/C=C/c4ccc(C)cc4)s3)nc2C)cc1,,> 100
O=C1/C(=C/c2ccc(Cl)cc2)CCC1CCN1CCOCC1 (stereo unspecified),,> 100
CC[C@H]1[C@@H]2C=C[C@@H]3[C@H]4C/C=C\C(=O)NCCC[C@@H]5NC(=O)/C(=C(O)/C=C/[C@@H]4C[C@@H]3[C@H]2C[C@H]1C)C5=O,0.42 µM,1.57
O=C1Nc2ccccc2/C1=N\[O-].O=C1Nc2ccccc2/C1=N\[O-].[Cu+2],> 100 µM,> 100
CN1C(=O)N(C)C2C1NN=c1s/c(=C\c3ccc(Cl)cc3Cl)c(=O)n12 (stereo unspecified),0.236 µM,> 100
CCC[CH2][Sn]([Cl])([CH2]CCC)[CH2]CCC,0.144 µM,0.276
Cc1ccc(NC(=O)CC2CC2)cc1-c1ccc(C(=O)NCC2CC2)cc1,> 25 µM,> 25
CCOC(=O)Nc1ccc(C)c(NC(=O)OCC)c1,,> 100
O=c1ccn([C@H]2CSC[C@@H](CO)C2)c(=O)[nH]1,,> 100
CNCC#Cc1c(F)ccc2c1/C(=C/c1[nH]ccc1OC)C(=O)N2,0.053 µM,2.64
COc1cc(-n2cc(-c3ccc(F)cc3)[nH]c2=O)cc(OC)c1OC,> 100 µM,> 100
Cn1cc(C2=C(c3cn(CCCCO)c4ccccc34)C(=O)NC2=O)c2ccccc21,6.38 µM,> 23.4
C1CN2CCN3CCN4CCN1[P+]243,,> 100

# Tested on: DMS 273 small cell lung
# Test: DTP human tumour cell line panel, 48 h
row,Structure (SMILES),TGI [µM]
1,COc1cc(NCc2ccc3nc(N)nc(N)c3c2C)cc(OC)c1OC (tested in a mixture with another compound),12.3
2,O=C1/C(=C/c2ccc3c(c2)OCO3)SC2C=Nc3ccccc3N12 (stereo unspecified),> 100
3,CCOc1ccc(NC(=O)C(=O)CC(=O)c2c(C)n([O-])c3ccccc3[n+]2=O)cc1,> 100
4,CC(=O)OC12C=CC(=O)N1c1ccccc1C(=O)O2 (stereo unspecified),> 100
5,Cc1cc(Cl)ccc1NC(=O)C(=O)Cc1nc2ccccc2o1,> 100
6,OCC1OC(c2nc(C3=NCCCN3)cs2)C(O)C1O (stereo unspecified),> 100
7,CCC(C)COC(=O)c1ccc(N=Cc2ccc(C=Nc3ccc(C(=O)OCC(C)CC)cc3)cc2)cc1 (stereo unspecified),> 100
8,Cc1cc(N(CCC#N)CCC#N)ccc1N=Nc1ccc(C(=O)O)cc1,> 100
9,CN(C)CC1CCCC/C1=N/OC(=O)c1ccc(Cl)cc1 (stereo unspecified),> 100
10,N#CC(C(=O)C(=O)C(C#N)c1ccc(Br)cc1)c1ccc(Br)cc1 (stereo unspecified),24.9
11,COc1cccc(C2=NC(C(C)C)CO2)c1 (stereo unspecified),> 100
12,CCOC(=O)C(=[N+]=[N-])[Si](C)(C)C,> 100
13,CCCc1nc(NC#N)nc(C(=O)Nc2ccccc2)c1CC,> 100
14,O=C(CCc1n[nH]c(=S)o1)Nc1ccccc1C(F)(F)F,> 100
15,COc1cc2c(c(OC)c1OC)-c1ccc(SC)c(=O)cc1C(NC=O)CC2 (stereo unspecified),> 100
16,Cc1ccc(NC(=O)CCc2cc(C(C)(C)C)nc(=S)[nH]2)cc1C,> 100
17,Cc1[nH]c2ccccc2c1C(=O)/C=C/c1ccccc1O,> 100
18,O=C(Nc1nc(=S)c2c(ncn2CCOC(=O)c2ccccc2)[nH]1)c1ccccc1,> 100
19,COc1ccc(CC2NCCc3c2[nH]c2ccccc32)cc1 (stereo unspecified),87.7
20,CCOc1ccc(NC(=O)CC#N)cc1,> 100
21,O=C(/C=C/c1cccc2ccccc12)c1ccccc1Cl,31.5
22,Cc1ccc(/C=C/C(=O)c2sc(-c3nc(C)c(C(=O)/C=C/c4ccc(C)cc4)s3)nc2C)cc1,> 100
23,O=C1/C(=C/c2ccc(Cl)cc2)CCC1CCN1CCOCC1 (stereo unspecified),> 100
24,O=c1ccn([C@H]2CSC[C@@H](CO)C2)c(=O)[nH]1,> 100
25,C1CN2CCN3CCN4CCN1[P+]243,> 100

# Tested on: HCT-116 colon
# Test: DTP human tumour cell line panel, 48 h
Structure (SMILES),GI50 [µM],TGI [µM]
COc1cc(NCc2ccc3nc(N)nc(N)c3c2C)cc(OC)c1OC (tested in a mixture with another compound),0.000185,33
COc1ccc(NC(=O)/C(Cc2cc(=O)oc3cc(O)ccc23)=N\NC(C)(C)C)c(OC)c1,,> 100
O=C1/C(=C/c2ccc3c(c2)OCO3)SC2C=Nc3ccccc3N12 (stereo unspecified),,> 100
CCOc1ccc(NC(=O)C(=O)CC(=O)c2c(C)n([O-])c3ccccc3[n+]2=O)cc1,,> 100
CC(=O)OC12C=CC(=O)N1c1ccccc1C(=O)O2 (stereo unspecified),,> 100
Cc1cc(Cl)ccc1NC(=O)C(=O)Cc1nc2ccccc2o1,,> 100
OCC1OC(c2nc(C3=NCCCN3)cs2)C(O)C1O (stereo unspecified),,> 100
CCC(C)COC(=O)c1ccc(N=Cc2ccc(C=Nc3ccc(C(=O)OCC(C)CC)cc3)cc2)cc1 (stereo unspecified),,> 100
CN(C)CC1CCCC/C1=N/OC(=O)c1ccc(Cl)cc1 (stereo unspecified),,> 100
N#CC(C(=O)C(=O)C(C#N)c1ccc(Br)cc1)c1ccc(Br)cc1 (stereo unspecified),,29.5
CCOC(=O)C(=[N+]=[N-])[Si](C)(C)C,,> 100
CCCc1nc(NC#N)nc(C(=O)Nc2ccccc2)c1CC,,> 100
Cc1ccc(NC(=O)CCc2cc(C(C)(C)C)nc(=S)[nH]2)cc1C,,> 100
Cc1[nH]c2ccccc2c1C(=O)/C=C/c1ccccc1O,,> 100
O=C(Nc1nc(=S)c2c(ncn2CCOC(=O)c2ccccc2)[nH]1)c1ccccc1,,> 100
COc1ccc(CC2NCCc3c2[nH]c2ccccc32)cc1 (stereo unspecified),,> 100
CCOc1ccc(NC(=O)CC#N)cc1,,> 100
O=C(/C=C/c1cccc2ccccc12)c1ccccc1Cl,,20.9
O=C1/C(=C/c2ccc(Cl)cc2)CCC1CCN1CCOCC1 (stereo unspecified),,> 100
CC[C@H]1[C@@H]2C=C[C@@H]3[C@H]4C/C=C\C(=O)NCCC[C@@H]5NC(=O)/C(=C(O)/C=C/[C@@H]4C[C@@H]3[C@H]2C[C@H]1C)C5=O,1.48,3.03
O=C1Nc2ccccc2/C1=N\[O-].O=C1Nc2ccccc2/C1=N\[O-].[Cu+2],> 100,> 100
CN1C(=O)N(C)C2C1NN=c1s/c(=C\c3ccc(Cl)cc3Cl)c(=O)n12 (stereo unspecified),0.131,> 40.2
CCC[CH2][Sn]([Cl])([CH2]CCC)[CH2]CCC,0.0569,0.188
Cc1ccc(NC(=O)CC2CC2)cc1-c1ccc(C(=O)NCC2CC2)cc1,> 25,> 25
CCOC(=O)Nc1ccc(C)c(NC(=O)OCC)c1,,> 100
O=c1ccn([C@H]2CSC[C@@H](CO)C2)c(=O)[nH]1,,> 100
